In patent US8293681B2, “Seed treatment agent and method for protecting plant” (Sumitomo Chemical Company, Ltd., priority 2008, dated 2012):

What was measured:
[1] = system: root rot on pea (Fusarium solani f. sp. pisi); assay: Test Example 3: seed treatment of pea, control of root rot, with reference compounds; type: in vivo; set-up: key to Incidence of disease: % = (non-budding seeds + diseased seedlings)×100/total seeds; key to Control value: control value = 100×(A−B)/A, A = untreated, B = treated incidence; conditions: pea seeds; for Incidence of disease: untreated 53
Description: Incidence of disease=(Number of no budding seeds and number of seedlings in which development of disease was observed)×100/(Number of total disseminated seeds) “Equation 1” Control value=100×(A−B)/A “Equation 2”
(§1) 10 μl of a dimethylsulphoxide solution of the compound (1a) or compound (1b) and 10 g of pea (Waiseiakabanakinusaya) seeds were put in a 50 ml tube and mixed to allow the compound (1a) or compound (1b) to stick to the surface of the seeds and then the mixture was allowed to stand still overnight to obtain treated seeds of the present invention. A plastic pot was filled with sandy soil, and the treated seeds of the present invention were disseminated. Then the seeds were covered with sandy soil, which had been mixed with a bran medium on which root rot on pea (Fusarium solani f. sp. pisi) had been allowed to grow and the peas were grown in a greenhouse of from 22 to 24° C. for six days while sprinkling water appropriately. A spore suspension of root rot on pea was perfused on the root of the seedlings for inoculation and the peas were allowed to grow in a greenhouse for further six days and the control effect was checked.
Besides, the incidence of disease was also checked in the case of seeds without the treatment with the agent in order to calculate the control value. Also, 2-[2-(2-methyl-phenoxymethyl)-phenyl]-2-methoxy-N-methyl-acetamide, which is described in International Publication WO 95/27,693 and hereinafter referred to as compound A, and 2-[2-(2-chloro-5-methyl-phenoxymethyl)-phenyl]-2-methoxy-N-methyl-acetamide, which is described in International Publication WO 96/07,633 and hereinafter referred to as compound B, were used as reference compounds.
(§2) The incidence of disease was calculated by Equation 1 and the control value was calculated by Equation 2 based on the incidence of disease.

[2] = system: root rot on pea (Fusarium solani f. sp. pisi); assay: Test Example 1: seed treatment of pea, control of root rot; type: in vivo; conditions: pea seeds, 10 gai/100 kg seed
Description: as §1, with “the” for “the compound (1a) or”
Besides, the incidence of disease was also checked in the case of seeds without the treatment with the agent in order to calculate the control value.
as §2
Incidence of disease=(Number of no budding seeds and number of seedlings in which development of disease was observed)×100/(Number of total disseminated seeds) “Equation 1” Control value=100×(A−B)/A “Equation 2” […]

[3] = system: rice 'Bakanae' disease; assay: Test Example 2: immersion of unhulled rice seeds affected with rice 'Bakanae' disease; type: in vivo, Gibberella fujikuroi; set-up: key to Incidence of disease: % of seedlings diseased: diseased×100/total seedlings; key to Control value: 100×(A−B)/A, from incidence of disease (untreated A, treated B); conditions: rice seeds immersed 24 hours; for Incidence of disease: untreated 19.2
Description: Incidence of disease=(Number of no budding seeds and number of seedlings in which development of disease was observed)×100/(Number of total disseminated seeds) “Equation 1” Control value=100×(A−B)/A “Equation 2” The flowable of the compound (1a) and the flowable of the compound (1b) were diluted with water to prepare an agent solution containing the compound (1a) or compound (1b). Unhulled rice seeds (Tanginbozu) affected with rice ‘Bakanae’ disease was immersed in the agent solution for 24 hours and then the unhulled rice seeds were taken out of the agent solution and air dried to obtain treated seeds. The treated seeds were immersed in water at 12° C. for 4 days and subsequently in water at 30° C. overnight. A plastic pot was filled with sandy soil, and the treated seeds were disseminated and allowed to grow in a greenhouse at 26° C. for 23 days to investigate the control effect. Besides, the incidence of disease was also checked in the case of seeds without the treatment with the agent in order to calculate the control value. The incidence of disease was calculated by Equation 3 and the control value was calculated based on the incidence of disease by Equation 2. Incidence of disease=(Number of seedlings in which development of disease was observed)×100/(Number of total seedlings) “Equation 3”

Structure (SMILES): CNC(=O)C(OC)c1ccccc1COc1cc(C)ccc1Cl (centres unmarked) [Compound B, 2-[2-(2-chloro-5-methyl-phenoxymethyl)-phenyl]-2-methoxy-N-methyl-acetamide, reference compound]
- Control value ([1]; 2.5 gai/100 kg seed): 62
- Incidence of disease ([1]; 2.5 gai/100 kg seed): 20
- Control value ([1]; 10 gai/100 kg seed): 81
- Incidence of disease ([1]; 10 gai/100 kg seed): 10

Structure (SMILES): CNC(=O)C(OC)c1ccccc1COc1cc(C)ccc1C (racemic) [Compound (1b)]
- Control value [2]: 100
- Incidence of disease ([2]; untreated 33): 0
- Control value ([3]; 62.5 ppm): 95
- Incidence of disease ([3]; 62.5 ppm): 0.9
- Control value ([3]; 125 ppm): 93
- Incidence of disease ([3]; 125 ppm): 1.4
- Control value ([3]; 500 ppm): 92
- Incidence of disease ([3]; 500 ppm): 1.6
- Control value ([3]; 2000 ppm): 93
- Incidence of disease ([3]; 2000 ppm): 1.3
- Control value ([1]; 2.5 gai/100 kg seed): 81
- Incidence of disease ([1]; 2.5 gai/100 kg seed): 10
- Control value ([1]; 10 gai/100 kg seed): 100
- Incidence of disease ([1]; 10 gai/100 kg seed): 0

Structure (SMILES): CNC(=O)C(OC)c1ccccc1COc1ccccc1C (centres unmarked) [Compound A, 2-[2-(2-methyl-phenoxymethyl)-phenyl]-2-methoxy-N-methyl-acetamide, reference compound]
- Control value ([1]; 2.5 gai/100 kg seed): 57
- Incidence of disease ([1]; 2.5 gai/100 kg seed): 23
- Control value ([1]; 10 gai/100 kg seed): 87
- Incidence of disease ([1]; 10 gai/100 kg seed): 7

Structure (SMILES): CNC(=O)[C@H](OC)c1ccccc1COc1cc(C)ccc1C [Compound (1a)]
- Control value ([1]; 2.5 gai/100 kg seed): 97
- Incidence of disease ([1]; 2.5 gai/100 kg seed): 4
- Control value ([1]; 10 gai/100 kg seed): 100
- Incidence of disease ([1]; 10 gai/100 kg seed): 0
